Measurements published in paper PMC8658889, “Seriniquinones as Therapeutic Leads for Treatment of BRAF and NRAS Mutant Melanomas” (Molecules, 2021).

Key:
501mel = assay: MTT cytotoxicity assay; assay type: cell-based, Human
Text: (§1) Human cell lines were used throughout this program. SK-MEL-19 (melanoma BRAF^V600E, NRAS^WT), SK-MEL-28 (melanoma BRAF^V600E, NRAS^WT), SK-MEL-147 (melanoma BRAF^WT, NRAS^Q61R), MRC-5 (fibroblasts), and primary fibroblast (FDH) were kindly provided by Professor Glaucia Santelli (University of São Paulo, Brazil). MCF7 (breast adenocarcinoma, ATCC HTB-22), and HCT-116 (colorectal carcinoma, ATCC 247) cells were obtained from American Type Culture Collection (ATCC) and deposited in the Cell Bank of Rio de Janeiro, Brazil. WM293A (metastatic melanoma BRAF^V600D, NRAS^WT), 501mel (metastatic melanoma BRAF^V600E; NRAS^G12D), and MM200 (melanoma BRAF^V600E, NRAS^WT) were kindly provided by Professor Sharon Prince, University of Cape Town, South Africa. All human melanoma and breast cell lines were cultivated with Dulbecco’s Modified Eagle Medium: Nutrient Mixture F-12 (Thermo Fisher Scientific, San Jose, CA, USA). MM200 and HCT-116 were maintained with Roswell Park Memorial Institute (RPMI) medium (Thermo Fisher Scientific, San Jose, CA, USA). Unless stated otherwise, media was supplemented with 10% fetal bovine serum (FBS) and 1% penicillin-streptomycin (Thermo Fisher Scientific, San Jose, CA, USA). Cells were incubated with 5% CO2 at 37 °C. When required, cells were detached from flask using trypsin-EDTA 0.05% (Thermo Fisher Scientific, San Jose, CA, USA).
(§2) Cytotoxic activity was evaluated by the transformation of 3-(4,5-dimethylthiazol-2-yl)-2,5-diphenyltetrazolium bromide (MTT; Thermo Fisher Scientific, San Jose, CA, USA) into formazan by viable cells. Cells were plated in a 96-well plate (1 × 10^4 cells/well) and, 24 h later, exposed to serial dilutions of the test compounds (from 0.00032 to 5.0 µM) for 24, 48, and 72 h. For each analysis, negative controls received 0.5% DMSO and positive control was delivered by doxorubicin (DOX; 0.05 to 10.0 µM). At the end of the incubation periods, the medium was replaced with fresh medium containing 0.5 mg/mL of MTT and supernatant was removed 3 h later. The plates were dried at 50 °C for 30 min and formazan was solubilized in DMSO (150 µL/well) for the absorbance measure at 570 nm on a plate reader (Thermo Fisher Scientific, San Jose, CA, USA). IC50 values (half-maximal inhibitory concentration) along with 95% CI (confidence intervals) were calculated by non-linear regression using GraphPad Prism 8.0 software (GraphPad Software, Inc., San Diego, CA, USA).

FDH = assay: MTT cytotoxicity assay; assay type: cell-based, Human; conditions: Homo sapiens, Fibroblast, 72 h, FDH primary fibroblasts, 72 h treatment
Text: as §1, §2

HCT-116 = assay: MTT cytotoxicity assay; assay type: cell-based, Human
Text: as §1, §2

MCF7 = assay: MTT cytotoxicity assay; assay type: cell-based, Human
Text: as §1, §2

MM200 = assay: MTT cytotoxicity assay; assay type: cell-based, Human
Text: as §1, §2

SK-MEL-147 = assay: MTT cytotoxicity assay; assay type: cell-based, Human
Text: as §1, §2

SK-MEL-19 = assay: MTT cytotoxicity assay; assay type: cell-based, Human
Text: as §1, §2

SK-MEL-28 = assay: MTT cytotoxicity assay; assay type: cell-based, Human
Text: as §1, §2

WM293A = assay: MTT cytotoxicity assay; assay type: cell-based, Human
Text: as §1, §2

melanoma cells = assay: MTT cytotoxicity assay, melanoma panel; assay type: cell-based, Human; conditions: SK-Mel cells versus non-tumor cell lines
Text: as §1, §2

MRC-5 = assay: MTT cytotoxicity assay; conditions: Homo sapiens, MRC5, 72 h, MRC-5 non-tumor fibroblasts, 72 h treatment, MTT

## N[C@H]1CCN(C(=O)CCc2ccc3c(=O)c4sc5c(=O)c6ccccc6c(=O)c5c4c(=O)c3c2)C1 [SQ5]
501mel; 501mel versus FDH, 72-h IC50 ratio
  Selectivity Index (SI): 0.5
501mel; 501mel versus MRC-5, 72-h IC50 ratio
  Selectivity Index (SI): 0.3
501mel; Homo sapiens, 501mel, 72 h treatment, MTT
  IC50: 1710 nM
FDH
  IC50: 930 nM
HCT-116; HCT-116 versus FDH, 72-h IC50 ratio
  Selectivity Index (SI): 4.2
HCT-116; HCT-116 versus MRC-5, 72-h IC50 ratio
  Selectivity Index (SI): 2.5
HCT-116; Homo sapiens, HCT-116, 72 h treatment, MTT
  IC50: 220 nM
MCF7; Homo sapiens, MCF7, 72 h treatment, MTT
  IC50: 490 nM
MCF7; MCF7 versus FDH, 72-h IC50 ratio
  Selectivity Index (SI): 1.9
MCF7; MCF7 versus MRC-5, 72-h IC50 ratio
  Selectivity Index (SI): 1.1
MM200; Homo sapiens, 72 h, MM200, 72 h treatment, MTT
  IC50: 300 nM
MM200; MM200 versus FDH, 72-h IC50 ratio
  Selectivity Index (SI): 3.1
MM200; MM200 versus MRC-5, 72-h IC50 ratio
  Selectivity Index (SI): 1.9
SK-MEL-147; Homo sapiens, SK-MEL-147, 72 h, SK-MEL-147, 72 h treatment, MTT
  IC50: 70 nM
SK-MEL-147; SK-MEL-147 versus FDH, 72-h IC50 ratio
  Selectivity Index (SI): 13.3
SK-MEL-147; SK-MEL-147 versus MRC-5, 72-h IC50 ratio
  Selectivity Index (SI): 8.0
SK-MEL-19; Homo sapiens, SK-MEL19, SK-MEL-19, 72 h treatment, MTT
  IC50: 40 nM
SK-MEL-19; SK-MEL-19 versus FDH, 72-h IC50 ratio
  Selectivity Index (SI): 23.3
SK-MEL-19; SK-MEL-19 versus MRC-5, 72-h IC50 ratio
  Selectivity Index (SI): 14.0
SK-MEL-28; Homo sapiens, SK-MEL-28, 72 h, SK-MEL-28, 72 h treatment, MTT
  IC50: 150 nM
SK-MEL-28; SK-MEL-28 versus FDH, 72-h IC50 ratio
  Selectivity Index (SI): 6.2
SK-MEL-28; SK-MEL-28 versus MRC-5, 72-h IC50 ratio
  Selectivity Index (SI): 3.7
WM293A; Homo sapiens, WM293A, 72 h treatment, MTT
  IC50: 1650 nM
WM293A; WM293A versus FDH, 72-h IC50 ratio
  Selectivity Index (SI): 0.6
WM293A; WM293A versus MRC-5, 72-h IC50 ratio
  Selectivity Index (SI): 0.3
Melanoma cells
  selectivity indices to SK-Mel cells in relation to non-tumor cell lines: ≥ twofold
MRC-5
  IC50: 560 nM
